Results from article PMC12080252, “Daphnia magna as an Alternative Model for (Simultaneous) Bioaccumulation and Chronic Toxicity Assessment—Controlled Exposure Study Indicates High Hazard of Heterocyclic PAHs” (Environmental Science & Technology, 2025).
Where “and” joins values, the source holds several entries; their conditions need not be identical. Equal entries are not always repeated. Where two headings read alike, the source gives them in different places.

How the values were obtained:
[1] = Partitioning between methanolic loading solution and aqueous medium (passive dosing); type: physicochemical; conditions: methanolic loading solution vs M4 medium at equilibrium via PDMS disk
Experimental: Polydimethylsiloxane (PDMS) passive dosing disks, each weighing 2 g with a surface area of 19.6 cm^2, were prepared using SYLGARD 184 silicone elastomer kit and cleaned before use. Details of the procedure are given in Section S3 (SI file). PDMS disks were loaded in methanolic solution or suspension of the test compounds (10 mL solution/disk) with constant shaking for 72 h, wiped with a lint-free tissue, and washed with water for 30 min four times to remove methanol.
The time required to reach equilibrium between the PDMS disk and the aqueous medium was determined by conducting 72-h kinetic experiments. Chemicals were dosed into M4 medium in 250 mL Schott bottles (in triplicates) at a ratio of 1 disk/100 mL M4 medium using disks loaded with methanolic solution of a single test substance. For the controls, the disks were loaded with pure methanol. While shaking the bottles at room temperature, five samples were taken at different time points over 72 h and the equilibration time was determined.
Passive dosing enabled successful quantification of exposure concentrations after centrifugation of algal biomass (CW), closely matching freely dissolved concentrations (Cfree) calculated from partition coefficients between methanol and the medium (KMeOH:medium; see Figure S12 and section S6 for details).
Table S5 Partition coefficients between the methanolic loading solutions (CMeOH, t=0, nominal concentration
in methanol at t=0) and the measured equilibrium concentrations of the aqueous medium (Cmedium, eq).
Compound CMeOH, t=0 Measured KMeOH:medium log log KMeOH:medium Calculated
[mg L-1] Cmedium, eq KMeOH:medium (mean ± SD) Cmedium, eq
* The “calculated CMedium, eq” were reported using the average KMeoH:medium and CMeOH, t=0. […]

[2] = Bioaccumulation test (growth, uptake, depuration; adapted from OECD 305) with passive dosing; type: in vivo, Daphnia magna; conditions: whole body (homogenate, wet weight); for concentration at 120 h: Daphnia magna, concentration in animal body at end of uptake phase (t = 120 h), read-out: Body burden
Experimental: (§1) Bioaccumulation tests with D. magna were adapted from OECD guideline 305 (for fish).[27] Each compound was tested using 110 animals: 10 for controls and 100 for chemical exposure. The animals, aged 10 days to limit growth dilution and provide sufficient tissue for analysis, were exposed to a single subtoxic concentration of each chemical. The test included three phases: (i) growth, (ii) uptake, and (iii) depuration. A combined chronic toxicity and bioaccumulation test was also conducted in a minimized version (section 2.6).
(§2) Ten days before exposure, 110 juvenile daphnids (<24 h old) were collected from the stock culture and grown in M4 medium. Due to the large number of animals required for this test, the volume of media and amount of food provided to the Daphnia were reduced for experimental feasibility. This was achieved by maintaining a denser population (20 mL medium/daphnid), as well as less food (D. subspicatus equivalent to 0.1 mg C/daphnid/day) compared to the stock culture yet still within the limits allowed by OECD 211. Other dietary supplements (fish food and spirulina) and physical conditions (temperature, light/dark cycle) were the same as the stock culture.
(§3) Before exposure started, 2 L of M4 medium containing D. subspicatus at a density sufficient for 100 daphnids for 5 days (25 mg C L^–1) was dosed with the test substance by shaking with 24 PDMS disks for 72 h. For controls (10 animals), 200 mL of M4 medium containing D. subspicatus ([…]) was equilibrated with 2 disks loaded with pure methanol. Immediately before the start of exposure phase, 10-day old daphnids were transferred to fresh medium for 1 h to clean their guts. Thereafter, 10 control daphnids were placed in 200 mL of pre-equilibrated clean medium with 2 clean PDMS disks, while 100 animals (treatment group) were divided into two beakers, each with 50 animals, 1 L of predosed exposure medium, and 12 loaded disks to begin the 5-day uptake phase.
(§4) Neonates were discarded daily, and animals were sampled at 24 h intervals over 120 h (5 time points, 2 replicates of 5 animals each). Sampled daphnids were transferred to clean medium for 15 min to remove chemicals present on animal surface, dried with lint-free tissue and weighed to determine wet weight. Finally, 5 animals of known mass were combined in each vial and stored at −20 °C until extraction. As passive dosing maintains constant concentrations,[1] medium samples for analysis (with and without biomass) were only taken at the end of the uptake phase.
(§5) 50 animals were first transferred to fresh medium for 15 min to remove exposure solution from their surface, and then placed in a new clean medium for the depuration phase. Animals were sampled at 4 time points (2 replicates of 5 animals each as in the uptake phase) over 69 to 96 h. After sampling, the remaining animals were transferred to fresh medium, and the old medium was collected for analysis. Control animals and their medium were analyzed at the end of both the uptake and depuration phases (5 animals each).
(§6) For quantification of body burdens, 5 daphnids were thawed, homogenized in 5 mL Milli-Q water (IKA T-25 digital Ultra-TURRAX) and extracted twice with 2 mL of hexane. The extracts were combined, dried with Na2SO4, concentrated under a nitrogen stream, and spiked with internal standard.
(§7) The depuration rate constant (k2) was derived by plotting the natural logarithm of CD against time ([h]), with the slope giving k2 (Figure S3).[27] The growth rate constant (kg) was determined from the slope of the regression line in the plot of ln (D. magna wet weight) versus time, and the growth-corrected depuration rate constant (k2g) was calculated using eq 4. [drawing 4] 4
(§8) From k2, the optimal uptake and depuration durations to reach 50% and 95% steady-state were estimated using eqs 5 and 6. [drawing 5] 5 [drawing 6] 6
(§9) The bioaccumulation factor (BAF*) was calculated, even though steady-state was not reached. […]

Daphnia magna = test: as above; type: in vivo; conditions: for log BAF*L5%: 5-day uptake, steady-state not reached, normalized to 5% lipid assuming 1.5% lipid in daphnids, eq 8; for effects on growth (wet weight) in bioaccumulation test: BCRB 21.6, BNF 4.5, BNT 4.3, DNF 0.1 μg L^–1, vs controls, p < 0.05; for log BCFL5% (BAF*L5%) / log k2 (growth-dilution corrected, k2g): Table S7, this study; for k2g (growth dilution corrected depuration rate constant): eq 4; for t95 (time to reach 95% steady-state): estimated from k2, eq 6; for k2 (depuration rate constant): slope of ln CD vs time
Experimental: as §1, §2, §3, §4, §5, §6, §7, §8, §9

[3] = Table 1; EPA Comptox where available, otherwise EPISuite MPBPVP v1.43 prediction; cited from earlier work
[4] = Table S7, this study, read-out: half-life (converted)
[5] = t50 (time to reach 50% steady-state / depuration half-life), estimated from k2, eq 5

SMILES: c1ccc2c(c1)ccc1oc3ccc4ccccc4c3c12 [DNF, dinaphtho[2,1-b:1′,2′-d]furan]
- log KMeOH:medium (mean ± SD) [1]: 5.98±0.14
- concentration at 120 h [2]: 176 ng/g
- half-life [2, 4]: 53.7 h
- half-life [2, 5]: 54 h
- log BAF*L5% (Daphnia magna): 3.77 L kg^-1 lipid and 3.77±0.08 L kg^-1 lipid
- effects on growth (wet weight) in bioaccumulation test (Daphnia magna): No inhibitory growth effects
- log BCFL5% (BAF*L5%) (Daphnia magna): 3.77
- log k2 (growth-dilution corrected, k2g) (Daphnia magna): -1.98 h-1
- k2g (growth dilution corrected depuration rate constant) (Daphnia magna): 0.0105 h⁻¹
- t95 (time to reach 95% steady-state) (Daphnia magna): 232 h
- k2 (depuration rate constant) (Daphnia magna): 0.0129 h⁻¹
- VP (vapor pressure) [3]: 2.15x10^-8 mm Hg

SMILES: c1ccc2c(c1)ccc1[nH]c3ccccc3c12 [BCRB, 7H-benzo[c]carbazole]
- log KMeOH:medium (mean ± SD) [1]: 4.12±0.06
- concentration at 120 h [2]: 25600 ng/g
- half-life [2, 4]: 6.23 h
- half-life [2, 5]: 6 h
- log BAF*L5% (Daphnia magna): 3.60±0.09 L kg^-1 lipid
- effects on growth (wet weight) in bioaccumulation test (Daphnia magna): statistically significant effects on growth
- log BCFL5% (BAF*L5%) (Daphnia magna): 3.6
- log k2 (growth-dilution corrected, k2g) (Daphnia magna): -0.96 h-1
- k2g (growth dilution corrected depuration rate constant) (Daphnia magna): 0.109 h⁻¹
- t95 (time to reach 95% steady-state) (Daphnia magna): 27 h
- k2 (depuration rate constant) (Daphnia magna): 0.111 h⁻¹
- VP (vapor pressure) [3]: 4.43x10^-8 mm Hg

SMILES: c1ccc2c(c1)ccc1oc3ccccc3c12 [BNF, benzo[b]naphtho[1,2-d]furan]
- log KMeOH:medium (mean ± SD) [1]: 5.26±0.06
- concentration at 120 h [2]: 2580 ng/g
- half-life [2, 4]: 27.7 h
- half-life [2, 5]: 28 h
- log BAF*L5% (Daphnia magna): 3.28±0.31 L kg^-1 lipid
- effects on growth (wet weight) in bioaccumulation test (Daphnia magna): statistically significant effects on growth
- log BCFL5% (BAF*L5%) (Daphnia magna): 3.28
- log k2 (growth-dilution corrected, k2g) (Daphnia magna): -1.66 h-1
- k2g (growth dilution corrected depuration rate constant) (Daphnia magna): 0.022 h⁻¹
- t95 (time to reach 95% steady-state) (Daphnia magna): 120 h
- k2 (depuration rate constant) (Daphnia magna): 0.025 h⁻¹
- VP (vapor pressure) [3]: 3.36x10^-6 mm Hg

SMILES: c1ccc2c(c1)ccc1sc3ccccc3c12 [BNT, benzo[b]naphtho[1,2-d]thiophene]
- log KMeOH:medium (mean ± SD) [1]: 5.46±0.12
- concentration at 120 h [2]: 29400 ng/g
- half-life [2, 4]: 16.5 h
- half-life [2, 5]: 17 h
- log BAF*L5% (Daphnia magna): 4.36 L kg^-1 lipid and 4.36±0.43 L kg^-1 lipid
- effects on growth (wet weight) in bioaccumulation test (Daphnia magna): No inhibitory growth effects
- log BCFL5% (BAF*L5%) (Daphnia magna): 4.36
- log k2 (growth-dilution corrected, k2g) (Daphnia magna): -1.39 h-1
- k2g (growth dilution corrected depuration rate constant) (Daphnia magna): 0.040 h⁻¹
- t95 (time to reach 95% steady-state) (Daphnia magna): 71 h
- k2 (depuration rate constant) (Daphnia magna): 0.042 h⁻¹
- VP (vapor pressure) [3]: 8.97x10^-7 mm Hg
